According to patent US5674467A, “Meso-tetraphenylporphyrin complex compounds, process for their production and pharmaceutical agents containing the latter” (Institut fur Diagnostikforschung GmbH, priority 1993, dated 1997):

How the values were obtained:
[1] = Relaxivity on relaxometer (minispec pc120; 20 MHz; 40° C.); type: physicochemical; settings: dist. water, pH 7.4, 20 MHz, 0-1 mmol/l
Procedure: (§1) Determination of Compatibility and Relaxivity of the Compounds According to the Invention
To determine the relaxivity, the relaxation times of the substances were measured in 4 different concentrations (0-1 mmol/l; dissolved in dist. water; pH 7.4) on a relaxometer (minispec pc120; 20 MHz; 40° C.). The calculation was performed from:
Δ(1/T1,2 -1/T1,2 blank value)/Δconc.=R1,2

[2] = Compatibility in mice after i.v. administration, 7-day observation; settings: mouse, in vivo, iv, 7 days observation, > if all animals tolerated the dose, < if all died
Procedure: as §1
The compatibility was examined preliminarily in mice (NMRI, Schering SPF, female, about 25 g). 0.5 mmol/kg of the substance in each case was administered intravenously to a mouse. The animal died, the dose was halved and correspondingly moved, otherwise the corresponding dose was administered to 2 additional mice. The period of observation was 7 days. The compatibility is indicated with > if all animals tolerated the corresponding dose, with < if all died.

[3] = test system: implanted tumor and lymph nodes; test: MR-imaging of VX-2 tumor-bearing rabbits: implanted tumor and lymph nodes; type: in vivo, rabbit; settings: 0.1 mmol/kg i.v.
Excerpt: (§2) MR-Imaging Experiment of Tumor-bearing (VX-2 Carcinoma) Rabbits
(§3) Siemens magnetom® (1.5 tesla; 64 MHz), T1 -accentuated spin-echo technique: TR : 350 ms, TE : 15 ms. slice orientation: coronary, slice thickness: 3 mm, number of averages: 4 per layer, field of view: 150 mm, matrix: 256^2, 4-6 layers, 1 echo per imaging sequence.
(§4) Hare rabbit, Wulf, female,=4 kg of body weight (KGW) [n=3].
(§5) Carcinoma (VX-2), implanted intramuscularly about 3 weeks before the beginning of the test.
(§6) 0.05 and 0.1 mmol/kg of body weight i.v.

[4] = test system: lymph node metastasis; test: MR-imaging of VX-2 tumor-bearing rabbits: lymph node metastasis; type: in vivo, rabbit; settings: 0.1 mmol/kg i.v.
Excerpt: as §2, §3, §4, §5, §6

[5] = test system: VX-2 carcinoma; test: MR-imaging of VX-2 tumor-bearing rabbits: VX-2 carcinoma; type: in vivo, rabbit; settings: 0.1 mmol/kg i.v.
Excerpt: as §2, §3, §4, §5, §6

[6] = test system: lymph nodes (iliacal); test: MR-imaging of VX-2 tumor-bearing rabbits: lymph nodes (iliacal); type: in vivo, rabbit; settings: 0.1 mmol/kg i.v.
Excerpt: as §2, §3, §4, §5, §6

[7] = test system: muscle; test: MR-imaging of VX-2 tumor-bearing rabbits: muscle; type: in vivo, rabbit; settings: 0.1 mmol/kg i.v.
Excerpt: as §2, §3, §4, §5, §6

[8] = 0 min p.i. (precontrast set to 1)

For `O=C(O)COc1cccc(-c2c3nc(c(-c4cccc(OCC(=O)O)c4)c4ccc([nH]4)c(-c4cccc(OCC(=O)O)c4)c4nc(c(-c5cccc(OCC(=O)O)c5)c5ccc2[nH]5)C=C4)C=C3)c1.[Cl-].[Cl-].[Cl-].[Mn+3]` [Example 2c, Manganese(III)-{5,10,15,20-tetrakis-[3-(carboxymethoxy)-phenyl]-porphyrin}-chloride], the “Relaxivity R1” value [1] was 13 I/mmol/s and the MTD at 168 h [2] was over 500 µmol/kg.

With `CC(=O)[O-].O=C([O-])c1cccc(-c2c3nc(c(-c4cccc(C(=O)[O-])c4)c4ccc([nH]4)c(-c4cccc(C(=O)[O-])c4)c4nc(c(-c5cccc(C(=O)[O-])c5)c5ccc2[nH]5)C=C4)C=C3)c1.[Mn+3]` [Example 4 from EP 0336 879 A1] the “Relaxivity R1” value [1] was 8.8 I/mmol/s.

In the case of `CC(=O)[O-].CC(=O)[O-].CC(=O)[O-].CCOC(=O)COc1ccc(-c2c3nc(c(-c4ccc(OCC(=O)OCC)c(OCC(=O)OCC)c4)c4ccc([nH]4)c(-c4ccc(OCC(=O)OCC)c(OCC(=O)OCC)c4)c4nc(c(-c5ccc(OCC(=O)OCC)c(OCC(=O)OCC)c5)c5ccc2[nH]5)C=C4)C=C3)cc1OCC(=O)OCC.[Mn+3]` [Example 4c, Manganese(III)-{5,10,15,20-tetrakis-[3,4-bis-(ethoxycarbonylmethoxy)-phenyl]-porphyrin}-acetate], the “Relaxivity R1” value [1] is reported as 11.6 I/mmol/s and the MTD at 168 h [2] is reported as at least 500 µmol/kg.

For `CC(=O)[O-].COc1ccc(-c2c3nc(c(-c4ccc(OC)c(S(=O)(=O)[O-])c4)c4ccc([nH]4)c(-c4ccc(OC)c(S(=O)(=O)[O-])c4)c4nc(c(-c5ccc(OC)c(S(=O)(=O)[O-])c5)c5ccc2[nH]5)C=C4)C=C3)cc1S(=O)(=O)[O-].[Mn+3].[Na+].[Na+].[Na+].[Na+]` [Example 17 from EP 0336 879 A1], the “Relaxivity R1” value [1] was 9.2 I/mmol/s.

For Gd-DTPA, the “enhancement of tumors or metastases after about 60-90 minutes” value [3] was “almost no enhancement of tumors or metastases was observed any longer”, the “signal rise in implanted tumor and lymph nodes” value ([3]; lymph nodes on tumor-bearing and tumor-free side (iliacal and popliteal)) was “only in a brief, small signal rise” and the “time until approximately the starting intensity was reached again” value ([3]; virtually all examined tissues, within about) was 60 to 90 min. For the same compound, the “Relative signal intensity, lymph node metastasis” value [4, 8] was 1.00, the “Relative signal intensity, lymph node metastasis” value ([4]; 2 min p.i.) was 1.61 and the “Relative signal intensity, lymph node metastasis” value ([4]; 8 min p.i.) was 1.44. For the same compound, the “Relative signal intensity, lymph node metastasis” value ([4]; 17 min p.i.) was 1.36, the “Relative signal intensity, lymph node metastasis” value ([4]; 42 min p.i.) was 1.29 and the “Relative signal intensity, lymph node metastasis” value ([4]; 52 min p.i.) was 1.20. The “Relative signal intensity, lymph node metastasis” value ([4]; 69 min p.i.) was 1.25, the “Relative signal intensity, lymph node metastasis” value ([4]; 24 hours p.i.) was 0.97 and the “Relative signal intensity, VX-2 carcinoma” value [5, 8] was 1.00. The “Relative signal intensity, VX-2 carcinoma” value ([5]; 2 min p.i.) was 1.50, the “Relative signal intensity, VX-2 carcinoma” value ([5]; 8 min p.i.) was 1.50 and the “Relative signal intensity, VX-2 carcinoma” value ([5]; 17 min p.i.) was 1.48. The “Relative signal intensity, VX-2 carcinoma” value ([5]; 42 min p.i.) was 1.47, the “Relative signal intensity, VX-2 carcinoma” value ([5]; 52 min p.i.) was 1.42 and the “Relative signal intensity, VX-2 carcinoma” value ([5]; 69 min p.i.) was 1.40. For the same compound, the “Relative signal intensity, VX-2 carcinoma” value ([5]; 24 hours p.i.) was 1.11, the “Relative signal intensity, lymph nodes (iliacal)” value [6, 8] was 1.00 and the “Relative signal intensity, lymph nodes (iliacal)” value ([6]; 2 min p.i.) was 1.50. For the same compound, the “Relative signal intensity, lymph nodes (iliacal)” value ([6]; 8 min p.i.) was 1.32, the “Relative signal intensity, lymph nodes (iliacal)” value ([6]; 17 min p.i.) was 1.20 and the “Relative signal intensity, lymph nodes (iliacal)” value ([6]; 42 min p.i.) was 1.24. For the same compound, the “Relative signal intensity, lymph nodes (iliacal)” value ([6]; 52 min p.i.) was 1.17, the “Relative signal intensity, lymph nodes (iliacal)” value ([6]; 69 min p.i.) was 1.11 and the “Relative signal intensity, lymph nodes (iliacal)” value ([6]; 24 hours p.i.) was 1.14. For the same compound, the “Relative signal intensity, muscle” value [7, 8] was 1.00, the “Relative signal intensity, muscle” value ([7]; 2 min p.i.) was 1.20 and the “Relative signal intensity, muscle” value ([7]; 8 min p.i.) was 1.11. For the same compound, the “Relative signal intensity, muscle” value ([7]; 17 min p.i.) was 1.10, the “Relative signal intensity, muscle” value ([7]; 42 min p.i.) was 1.07 and the “Relative signal intensity, muscle” value ([7]; 52 min p.i.) was 1.02. The “Relative signal intensity, muscle” value ([7]; 69 min p.i.) was 1.08 and the “Relative signal intensity, muscle” value ([7]; 24 hours p.i.) was 1.04.

With “Manganese (III){5,10,15,20tetrakis-{[4carboxylic acid(2,3-dihydroxy-1-hydroxymethylpropyl)-amidephenylporphyrinacetate [Example 2 from EP 0336 879 A1]” the “Relaxivity R1” value [1] was 8.6 I/mmol/s.
